Columns and labels:
Test in all cases: relative viability (nuclei count vs DMSO), 5 days (fraction); higher = more cells survive
RAF265 + Tozasertib = compound: Cn1c(Nc2ccc(C(F)(F)F)cc2)nc2cc(Oc3ccnc(-c4ncc(C(F)(F)F)[nH]4)c3)ccc21 [RAF265] + Cc1cc(Nc2cc(N3CCN(C)CC3)nc(Sc3ccc(NC(=O)C4CC4)cc3)n2)n[nH]1 [Tozasertib] (partner 0.1 µM)
Procedure, shortened: (§1)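 A single step with final 0.05% Triton X-100, 1% formaldehyde and 1 ug/ml Hoechst fixed the cells and stained nuclei 5 days after treatment. Lung cancer cell lines in 1536-well plates had been treated by pin tool the day after seeding with one drug alone or a fixed anchor-drug dose plus five library-drug doses (not always all listed) in √10 steps, and nuclei were counted on 4× images. Relative viability is the ratio of nuclei in treated wells to nuclei in vehicle wells, taken as the median of duplicate plates.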

Doramapimod + Pemetrexed = compound: Cc1ccc(-n2nc(C(C)(C)C)cc2NC(=O)Nc2ccc(OCCN3CCOCC3)c3ccccc23)cc1 [Doramapimod] + Nc1nc2[nH]cc(CCc3ccc(C(=O)N[C@@H](CCC(=O)O)C(=O)O)cc3)c2c(=O)[nH]1 [Pemetrexed] (partner 0.2 µM)
Procedure, shortened: as §1

IPA-3 + Foretinib = compound: C1=CC=C2C(=C1)C=CC(=C2SSC3=C(C=CC4=CC=CC=C43)O)O [IPA-3] + COc1cc2c(Oc3ccc(NC(=O)C4(C(=O)Nc5ccc(F)cc5)CC4)cc3F)ccnc2cc1OCCCN1CCOCC1 [Foretinib] (partner 0.25 µM)
Procedure, shortened: as §1

RAF265 + Decitabine = compound: Cn1c(Nc2ccc(C(F)(F)F)cc2)nc2cc(Oc3ccnc(-c4ncc(C(F)(F)F)[nH]4)c3)ccc21 [RAF265] + Nc1ncn([C@H]2C[C@H](O)[C@@H](CO)O2)c(=O)n1 [Decitabine] (partner 2 µM)
Procedure, shortened: as §1

Cell Line	relative viability (RAF265 + Tozasertib; first compound 0.01 µM)	relative viability (RAF265 + Tozasertib; first compound 0.03162 µM)	relative viability (RAF265 + Tozasertib; first compound 0.1 µM)	relative viability (RAF265 + Tozasertib; first compound 1 µM)	relative viability (Doramapimod + Pemetrexed; first compound 0.02 µM)	relative viability (Doramapimod + Pemetrexed; first compound 0.06325 µM)	relative viability (Doramapimod + Pemetrexed; first compound 0.2 µM)	relative viability (Doramapimod + Pemetrexed; first compound 0.6325 µM)	relative viability (Doramapimod + Pemetrexed; first compound 2 µM)	relative viability (IPA-3 + Foretinib; first compound 0.2 µM)	relative viability (IPA-3 + Foretinib; first compound 0.6325 µM)	relative viability (IPA-3 + Foretinib; first compound 2 µM)	relative viability (IPA-3 + Foretinib; first compound 6.325 µM)	relative viability (IPA-3 + Foretinib; first compound 20 µM)	relative viability (RAF265 + Decitabine; first compound 0.01 µM)	relative viability (RAF265 + Decitabine; first compound 0.03162 µM)	relative viability (RAF265 + Decitabine; first compound 0.1 µM)	relative viability (RAF265 + Decitabine; first compound 0.3162 µM)	relative viability (RAF265 + Decitabine; first compound 1 µM)	relative viability (RAF265 + Tozasertib; first compound 0.3162 µM)
PC-3 [JPC-3]	0.889	0.868	0.985	0.518	1.27	1.37	1.24	0.933	1.03	1.06	0.975	1.04	0.965	1	0.924	0.785	0.831	0.488	0.655	
NCI-H1792					0.869	0.761	0.707	0.743	0.651						0.462	0.506	0.472	0.324	0.204	
NCI-H596	1.04	0.959	1.06	0.728	0.484	0.52	0.468	0.522	0.479	0.691	0.945	0.923	0.881	1.06	1.06	0.975	0.913	1.13	0.925	0.888
RERF-LC-KJ	0.54	0.482	0.507	0.386	0.471	0.457	0.474	0.367	0.501	1.02	0.913	0.868	0.847	1.04	0.815	0.616	0.669	0.583	0.527	0.39
NCI-H322M	0.479	0.462	0.306	0.223	0.666	0.653	0.64	0.644	0.654	1.05	0.961	1.15	1.04	1.13	0.704	0.667	0.593	0.495	0.395	0.327
COR-L 105	0.435	0.423	0.341	0.317	1.21	1.05	0.995	1.31	0.951	1.24	1.11	0.744	1.02	1.15	0.688	0.773	0.599	0.497	0.436	0.451
NCI-H1993	0.606	0.57	0.571	0.594	0.627	0.517	0.504	0.658	0.558	0.833	0.654	0.813	0.776	0.728	0.615	0.644	0.561	0.544	0.624	0.593
NCI-H1437	0.408	0.437	0.427	0.365	0.291	0.287	0.323	0.329	0.302	1.37	1.23	1.32	1.2	1.35	0.613	0.622	0.571	0.661	0.574	0.45
NCI-H838	0.266	0.283	0.288	0.223	0.238	0.252	0.276	0.263	0.246	1.22	1	1.1	1.03	1.14	0.516	0.49	0.494	0.466	0.391	0.311
NCI-H1666	0.635	0.664	0.689	0.488	0.841	0.916	0.819	0.948	0.913	0.988	0.926	0.976	1.01	1.16	0.851	0.915	0.71	0.722	0.694	0.618
NCI-H1944	0.265	0.248	0.265	0.185	0.573	0.623	0.503	0.595	0.572	1.05	0.856	0.879	0.938	0.928	0.445	0.496	0.398	0.384	0.317	0.234
NCI-H2023	0.314	0.497	0.466	0.183	0.215	0.219	0.226	0.259	0.215	0.856	0.666	0.995	0.853	1.1	0.26	0.208	0.198	0.215	0.176	0.286
EBC-1										0.104	0.113	0.0992	0.121	0.108						
ABC-1	0.17	0.202	0.178	0.24						1.06	1.13	1	1.17	1.19	1.16	1.04	1.07	1.17	0.979	0.158
NCI-H1563					0.83	0.768	0.811	1.13	0.787	0.996	0.87	1.01	1.01	0.867						
NCI-H1299										1.1	1.07	1.17	0.678	1.06						
A549										0.988	0.927	1.01	0.884	1.21	0.226	0.232	0.259	0.318	0.155	
NCI-H1623	0.507	0.474	0.475	0.392						0.97	0.899	0.878	0.815	0.923						
NCI-H1703										0.295	0.339	0.331	0.349	0.391						
HCC-44	0.892	0.779	1.25	0.821	0.673	0.649	0.712	0.605	0.614						0.945	0.951	0.95	0.967	0.947	1.07
Calu-6										1.01	0.95	0.96	0.808	0.932						
